According to patent US11781101B2, “3D-printed models of biological microenvironments” (Regents of the University of Minnesota, priority 2018, dated 2023):

Test system: HUVEC-lined conduit
Conditions: laser-triggered release of VEGF from capsules on one side of conduit
Excerpt: To mimic the beginning of a metastatic cascade in the context of cell types relevant to the tumor microenvironment, a vascularized 3D-printed culture chamber was configured to provide spatiotemporal control over both tumor cell invasion and angiogenesis as illustrated in FIG. 28. The angiogenic mediator VEGF was introduced to promote and direct the formation of a vascular network from a pre-existing uniaxial conduit.

## VEGF
  endothelial sprouting from the conduit: numerous endothelial cells sprouted from the conduit
